In patent publication US5434141A, “Medicament for the treatment of hyperlipidaemia and/or atherosclerosis” (Steigerwald Arzneimittelwerk GmbH, priority 1990, dated 1995):
“Also recorded” adds a separate entry of the source. Like-named read-outs stand apart in the source and are kept apart here.

What was measured:
[1] = Experiment 1: serum cholesterol and lipid concentration in hamsters fed a lipidaemia diet, 4 weeks; assay type: in vivo, male golden hamsters; conditions: for hypocholesterolaemic / lipid-lowering action, in words: serum
Experimental: (§1) 3 Groups each of 20 male golden hamsters were fed for 4 weeks with a lipidaemia diet (hamster maintenance diet and 2% cholesterol).
(§2) The dose taken was between 4 and 5 g/kg of body weight and day.
(§3) After 4 weeks the animals were sacrificed and the serum and hepatic lipid concentration was measured. The results of the analyses are compiled in Tables 1, 2 and 3.

[2] = Experiment 1: hepatic lipid concentration in hamsters fed a lipidaemia diet, 4 weeks; assay type: in vivo, male golden hamsters; conditions: four weeks
Experimental: as §1, §2, §3

[3] = Tolerability / toxic effects (general statement); conditions: in vivo
[4] = by contrast with pectin; cited from earlier work
[5] = in vivo; cited from earlier work
[6] = Experimental: (§4) 3 Groups each of 20 male golden hamsters were fed for 4 weeks with a lipidaemia diet (hamster maintenance diet and 2% cholesterol). The feed in the two treated groups was additionally supplemented with in each case 5% galacturonic acid or DEAE-polygalacturonic acid (DEAE=diethylaminoethyl).
(§5) 3 Groups each of 20 male golden hamsters were treated for 4 weeks like the animals described in 1. […] Group 1 was the lipidaemia control.

[7] = Experiment 2: hepatic lipid concentration in hamsters fed a lipidaemia diet, 4 weeks; assay type: in vivo, male golden hamsters; conditions: four weeks
Experimental: as §4, §5

[8] = mean, n = 20/group, 5% in feed, four weeks
[9] = mean, n = 20/group, 5% in feed, four weeks, * p ≤ 0.05
[10] = significant, p≤0.05, four weeks
[11] = mean, n = 20/group, 5% in feed, * p ≤ 0.05

O=C(O)[C@H]1O[C@H](O)[C@H](O)[C@@H](O)[C@H]1O [galacturonic acid, α-D-galacturonic acid]
Free cholesterol in serum, D = difference from the control group ([1]; 5% in feed, four weeks): -19%
HDL-cholesterol in serum, D = difference from the control group ([1]; 5% in feed, four weeks): -20%
LDL-cholesterol in serum, D = difference from the control group ([1]; 5% in feed, four weeks): -23%
Phospholipids in serum, D = difference from the control group ([1]; 5% in feed, four weeks): -17%
Total cholesterol in serum, D = difference from the control group ([1]; 5% in feed, four weeks): -20%
Total lipids in serum, D = difference from the control group ([1]; 5% in feed, four weeks): -18%
Triglycerides in serum, D = difference from the control group ([1]; 5% in feed, four weeks): +7%
VLDL + LDL-cholesterol in serum, D = difference from the control group ([1]; 5% in feed, four weeks): -20%
VLDL-cholesterol in serum, D = difference from the control group ([1]; 5% in feed, four weeks): -14%
Phospholipids concentration in serum [1, 8]: 322 mg/dL
Total lipids concentration in serum [1, 8]: 1060 mg/dL
Triglycerides concentration in serum [1, 8]: 216 mg/dL
Free cholesterol concentration in serum [1, 9]: 96 mg/dL
HDL-cholesterol concentration in serum [1, 9]: 118 mg/dL
LDL-cholesterol concentration in serum [1, 9]: 117 mg/dL
Total cholesterol concentration in serum [1, 9]: 271 mg/dL
VLDL + LDL-cholesterol concentration in serum [1, 9]: 153 mg/dL
VLDL-cholesterol concentration in serum [1, 9]: 36 mg/dL
hypocholesterolaemic / lipid-lowering action, in words [1]: significant decrease in the cholesterol and lipid concentrations; also recorded: has a hypocholesterolaemic action
hypocholesterolaemic / lipid-lowering action, in words ([1]; listed as α-D-galacturonic acid): shows a hypocholesterolaemic action in the serum
lowering of serum HDL-cholesterol ([1]; significant, four weeks): 20%
lowering of serum LDL-cholesterol ([1]; significant, four weeks): 23%
lowering of serum VLDL- plus LDL-cholesterol ([1]; significant, four weeks): 20%
lowering of serum free cholesterol ([1]; significant, four weeks): 19%
lowering of serum phospholipid concentration ([1]; significant, four weeks): 17%
lowering of serum total lipid concentration ([1]; significant, four weeks): 18%
lowering of serum concentration of total cholesterol [1, 10]: 20%
Hepatic cholesterol, D = difference from the control group ([2]; 5% in feed): -9%
Hepatic total lipids, D = difference from the control group ([2]; 5% in feed): -34%
Hepatic cholesterol concentration [2, 11]: 27 mg/g wet weight
Hepatic total lipids concentration [2, 11]: 111 mg/g wet weight
reduction of total lipid concentration in the liver ([2]; significant): 34%
tolerability [3]: as a rule well tolerated
solubility in water [4]: readily soluble in water
toxic effects [5]: No toxic effects are known

polygalacturonic acid
Free cholesterol in serum, D = difference from the control group ([6]; 5% in feed, four weeks): -32%
HDL-cholesterol in serum, D = difference from the control group ([6]; 5% in feed, four weeks): -15%
LDL-cholesterol in serum, D = difference from the control group ([6]; 5% in feed, four weeks): -18%
Phospholipids in serum, D = difference from the control group ([6]; 5% in feed, four weeks): -19%
Total cholesterol in serum, D = difference from the control group ([6]; 5% in feed, four weeks): -13%
Total lipids in serum, D = difference from the control group ([6]; 5% in feed, four weeks): -14%
VLDL + LDL-cholesterol in serum, D = difference from the control group ([6]; 5% in feed, four weeks): -8%
VLDL-cholesterol in serum, D = difference from the control group ([6]; 5% in feed, four weeks): -4%
Phospholipids concentration in serum [6, 8]: 385 mg/dL
Total lipids concentration in serum [6, 8]: 1338 mg/dL
Triglycerides concentration in serum [6, 8]: 269 mg/dL
Free cholesterol concentration in serum [6, 9]: 80 mg/dL
HDL-cholesterol concentration in serum [6, 9]: 149 mg/dL
LDL-cholesterol concentration in serum [6, 9]: 163 mg/dL
Total cholesterol concentration in serum [6, 9]: 361 mg/dL
VLDL + LDL-cholesterol concentration in serum [6, 9]: 212 mg/dL
VLDL-cholesterol concentration in serum [6, 9]: 48 mg/dL
lowering of serum phospholipid concentration ([6]; significant, four weeks): 19%
lowering of serum total lipid concentration ([6]; significant, four weeks): 14%
lowering of serum HDL-cholesterol [6, 10]: 15%
lowering of serum free cholesterol [6, 10]: 32%
lowering of serum total cholesterol [6, 10]: 13%
Hepatic cholesterol, D = difference from the control group ([7]; 5% in feed): -26%
Hepatic total lipids, D = difference from the control group ([7]; 5% in feed): -25%
Hepatic cholesterol concentration [7, 11]: 22.1 mg/g wet weight
Hepatic total lipids concentration [7, 11]: 67.4 mg/g wet weight
lowering of hepatic cholesterol concentration ([7]; significant): 26%
lowering of hepatic total lipid concentration ([7]; significant): 25%
